pKi: −log10 of the molar value.

The assay deals with T1, TAK1A-TAB fusion protein (Homo sapiens, UniProt O43318).
T1 construct: using 20 nM TAK1A-TAB fusion protein
T1 sequence (O43318 with tags, fused parts or gaps isoform O43318-2 limits assumed): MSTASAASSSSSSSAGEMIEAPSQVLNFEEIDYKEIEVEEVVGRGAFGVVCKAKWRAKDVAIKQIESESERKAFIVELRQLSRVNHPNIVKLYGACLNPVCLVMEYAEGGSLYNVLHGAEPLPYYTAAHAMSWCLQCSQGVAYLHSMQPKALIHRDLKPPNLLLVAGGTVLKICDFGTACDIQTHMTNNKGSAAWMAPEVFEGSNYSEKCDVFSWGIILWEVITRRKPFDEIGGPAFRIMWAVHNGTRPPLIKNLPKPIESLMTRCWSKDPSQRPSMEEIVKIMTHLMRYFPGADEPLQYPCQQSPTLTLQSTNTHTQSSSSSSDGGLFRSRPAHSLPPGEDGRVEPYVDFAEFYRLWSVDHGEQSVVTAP
The experiment in a line: TAK-1 inhibition assay, radiometric filter binding assay. It counts as biochemical. The note with it: 50 μM ATP, 12 μM bovine myelin basic protein, 20 nM TAK1A-TAB fusion protein. The protocol: Compounds were screened for their ability to inhibit TAK1A kinase activity using a radiometric filter binding assay. Reactions were carried out in a solution containing Buffer A (100 mM HEPES (pH 7.5), 10 mM MgCl2), 25 mM NaCl, 2 mM DTT, and 1.5% DMSO. Final substrate concentrations in the assay were 50 μM ATP (a mixture of unlabeled ATP (Sigma Chemicals, St Louis, Mo.) and ^33P-labeled ATP (PerkinElmer Life Sciences, Boston, Mass.) for a final specific activity of 50 Ci/mol), and 12 μM bovine myelin basic protein (MBP, Vertex Pharmaceuticals, Cambridge, Mass.). Reactions were carried out at ambient temperature (˜20° C.) using 20 nM TAK1A-TAB fusion protein. Under these conditions the extent of reaction is linear with time for a period of 2 hours.
A test compound of the present invention (1 μL in DMSO) was combined with ATP and Buffer A in a final volume of 47 μL in a 96 well plate. Typically, a 6 point titration was conducted by preparing serial dilutions (from 10 mM compound stocks) with DMSO of the test compounds of the present invention in daughter plates, for final concentrations spanning 0.046 μM to 3.73 μM. The reaction was initiated by the addition of 20 μl of an enzyme stock solution consisting of TAK1A-TAB fusion (described by Sugita, T. et al. in Biochem. Biophys. Res. Comm. 2002, 297, 1277-1281), MBP, Buffer A, NaCl, and DTT. The reaction was allowed to proceed for two hours at ambient temperature, then quenched with an equal volume of 10 mM unlabeled ATP in 10% trichloroacetic acid. A 110 μL aliquot of the quenched reaction was transferred to a Multiscreen PH filter plate (Millipore, Billerica, Mass.) and allowed to incubate at ambient temperature overnight (typically 16-20 hours). Following incubation the filter plates were washed with 3×150 μL aliquots of 5% trichloroacetic acid using a modified Biotek Elx405 plate washer. A 70 μL aliquot of Microscint 20 scintillation fluid (PerkinElmer) was added to each well, and the plate was then sealed and read on a TopCount NXT microplate scintillation counter (PerkinElmer). The Ki values were determined from the rate data as a function of inhibitor concentration.
Broadly, the pKi is the Ki on a negative log10 scale, so that one unit is a factor of ten. `CCN1CCC(c2cnc3[nH]cc(-c4oncc4-c4cccc(F)c4F)c3c2)CC1` [Compound 72, 3-[4-(2,3-Difluoro-phenyl)-isoxazol-5-yl]-5-(1-ethyl-piperidin-4-yl)-1H-pyrrolo[2,3-b]pyridine] gave a pKi of 4.90 to 6.00. With `CS(=O)(=O)n1ccc2cc(-c3cnc4[nH]cc(-c5oncc5-c5cccc(F)c5F)c4c3)cnc21` [Compound 97, 3′-[4-(2,3-Difluoro-phenyl)-isoxazol-5-yl]-1-methanesulfonyl-1H, 1′H-[5,5′]bi[pyrrolo[2,3-b]pyridinyl]] the figure was 6.00 to 6.70; with `Fc1cccc(-n2cnnc2-c2c[nH]c3ncc(-c4ccncc4)cc23)c1F` [Compound 114, 3-[4-(2,3-Difluoro-phenyl)-4H-[1,2,4]triazol-3-yl]-5-pyridin-4-yl-1H-pyrrolo[2,3-b]pyridine], 4.90 to 6.00; with `COc1cnc2[nH]cc(-c3oncc3-c3cccc(Cl)c3Cl)c2c1` [Compound 49, 3-[4-(2,3-Dichloro-phenyl)-isoxazol-5-yl]-5-methoxy-1H-pyrrolo[2,3-b]pyridine], 6.00 to 6.70.

The compound `Fc1cccc(-n2cnnc2-c2c[nH]c3ncc(-c4ccc(N5CCC[C@H]5CN5CCCC5)nc4)cc23)c1F` [Compound 115, 3-[4-(2,3-Difluoro-phenyl)-4H-[1,2,4]triazol-3-yl]-5-[6-(2-pyrrolidin-1-ylmethyl-pyrrolidin-1-yl)-pyridin-3-yl]-1H-pyrrolo[2,3-b]pyridine] had a pKi of 6.00 to 6.70.

For the compound `Fc1cccc(-n2cnnc2-c2c[nH]c3ncc(-c4ccc(N5CCCC5)nc4)cc23)c1F` [Compound 118, 3-[4-(2,3-Difluoro-phenyl)-4H-[1,2,4]triazol-3-yl]-5-(6-pyrrolidin-1-yl-pyridin-3-yl)-1H-pyrrolo[2,3-b]pyridine], the pKi was 6.00 to 6.70. As to `CN(C)C(=O)c1ccc(-c2cnc3[nH]cc(-c4oncc4-c4cccc(F)c4F)c3c2)nc1` [Compound 79, 6-{3-[4-(2,3-Difluoro-phenyl)-isoxazol-5-yl]-1H-pyrrolo [2,3-b]pyridin-5-yl}-N,N-dimethyl-nicotinamide], the pKi is 6.00 to 6.70. With `Fc1cccc(-n2cnnc2-c2c[nH]c3ncc(-c4cccnc4)cc23)c1F` [Compound 113, 3-[4-(2,3-Difluoro-phenyl)-4H-[1,2,4]triazol-3-yl]-5-pyridin-3-yl-1H-pyrrolo[2,3-b]pyridine] the figure was 4.90 to 6.00. With `CN(C)C1CC=C(c2cnc3[nH]cc(-c4oncc4-c4cccc(F)c4F)c3c2)CC1` (stereo not drawn) [Compound 138, (4-{3-[4-(2,3-Difluoro-phenyl)-isoxazol-5-yl]-1H-pyrrolo[2,3-b]pyridin-5-yl}-cyclohex-3-enyl)-dimethyl-amine] the figure was above 6.70. The compound `CN1CCCN(c2ccc(-c3cnc4[nH]cc(-c5nncn5-c5cccc(F)c5F)c4c3)cn2)CC1` [Compound 117, 3-[4-(2,3-Difluoro-phenyl)-4H-[1,2,4]triazol-3-yl]-5-[6-(4-methyl-[1,4]diazepan-1-yl)-pyridin-3-yl]-1H-pyrrolo [2,3-b]-pyridine] gave a pKi of 6.00 to 6.70. With `Fc1ccc(-c2cnc3[nH]cc(-c4oncc4-c4cccc(F)c4F)c3c2)cn1` [Compound 69, 3-[4-(2,3-Difluoro-phenyl)-isoxazol-5-yl]-5-(6-fluoro-pyridin-3-yl)-1H-pyrrolo[2,3-b]pyridine] the figure was 6.00 to 6.70; with `Fc1cccc(-c2cnoc2-c2c[nH]c3ncc(C4=CCC(N5CCOCC5)CC4)cc23)c1F` (stereo not drawn) [Compound 139, 3-[4-(2,3-Difluoro-phenyl)-isoxazol-5-yl]-5-(4-morpholin-4-yl-cyclohex-1-enyl)-1H-pyrrolo[2,3-b]pyridine], 6.00 to 6.70; with `NC1CC=C(c2cnc3[nH]cc(-c4oncc4-c4cccc(F)c4F)c3c2)CC1` (stereo not drawn) [Compound 137, 4-{3-[4-(2,3-Difluoro-phenyl)-isoxazol-5-yl]-1H-pyrrolo [2,3-b]pyridin-5-yl}-cyclohex-3-enylamine], above 6.70. With `CN1CCN(c2ccc(-c3cnc4[nH]cc(-c5nncn5-c5cccc(F)c5F)c4c3)cn2)CC1` [Compound 112] the figure was 4.90 to 6.00; with `OC1CCN(c2ccc(-c3cnc4[nH]cc(-c5nncn5-c5cccc(F)c5F)c4c3)cn2)CC1` [Compound 116, 5′-{3-[4-(2,3-Difluoro-phenyl)-4H-[1,2,4]triazol-3-yl]-1H-pyrrolo[2,3-b]pyridin-5-yl}-3,4,5,6-tetrahydro-2H-[1,2′]bi-pyridinyl-4-ol], 6.00 to 6.70; with `CS(=O)(=O)NC1CC=C(c2cnc3[nH]cc(-c4oncc4-c4cccc(F)c4F)c3c2)CC1` (stereo not drawn) [Compound 140, N-(4-{3-[4-(2,3-Difluoro-phenyl)-isoxazol-5-yl]-1H-pyrrolo[2,3-b]pyridin-5-yl}-cyclohex-3-enyl)-methanesulfonamide], above 6.70.

For the compound `Oc1cnc2[nH]cc(-c3oncc3-c3cccc(Cl)c3Cl)c2c1` [Compound 48, 3-[4-(2,3-Dichloro-phenyl)-isoxazol-5-yl]-1H-pyrrolo[2,3-b]pyridin-5-ol], the pKi was 6.00 to 6.70.

`CN(C)CC#Cc1cnc2[nH]cc(-c3oncc3-c3cccc(F)c3F)c2c1` [Compound 53, (3-{3-[4-(2,3-Difluoro-phenyl)-isoxazol-5-yl]-1H-pyrrolo[2,3-b]pyridin-5-yl}-prop-2-ynyl)-dimethyl-amine] showed a negative-log Ki (pKi) of 6.00 to 6.70. With `CN1CCN(c2ccc(-c3cnc4[nH]cc(-c5nncn5-c5cccc(F)c5F)c4c3)cc2)CC1` [Compound 110, 3-[4-(2,3-Difluoro-phenyl)-4H-[1,2,4]triazol-3-yl]-5-[4-(4-methyl-piperazin-1-yl)-phenyl]-1H-pyrrolo[2,3-b]pyridine] the figure was above 6.70; with `Fc1cccc(-c2cnoc2-c2c[nH]c3ncc(C4=CCC(NCc5ccccc5)CC4)cc23)c1F` (stereo not drawn) [Compound 136, Benzyl-(4-{3-[4-(2,3-difluoro-phenyl)-isoxazol-5-yl]-1H-pyrrolo[2,3-b]pyridin-5-yl}-cyclohex-3-enyl)-amine], above 6.70. With `COc1ccnc(-c2cnc3[nH]cc(-c4oncc4-c4cccc(F)c4F)c3c2)c1` [Compound 78, 3-[4-(2,3-Difluoro-phenyl)-isoxazol-5-yl]-5-(4-methoxy-pyridin-2-yl)-1H-pyrrolo[2,3-b]pyridine] the figure was 6.00 to 6.70. With `Fc1cccc(-n2cnnc2-c2c[nH]c3ncc(-c4ccc(CN5CCOCC5)cc4)cc23)c1F` [Compound 109, 3-[4-(2,3-Difluoro-phenyl)-4H-[1,2,4]triazol-3-yl]-5-(4-morpholin-4-ylmethyl-phenyl)-1H-pyrrolo[2,3-b]pyridine] the figure was 6.00 to 6.70; with `CN(C)CCNc1ccc(-c2cnc3[nH]cc(-c4nncn4-c4cccc(F)c4F)c3c2)cn1` [Compound 119, N′-(5-{3-[4-(2,3-Difluoro-phenyl)-4H-[1,2,4]triazol-3-yl]-1H-pyrrolo[2,3-b]pyridin-5-yl}-pyridin-2-yl)-N,N-dimethyl-ethane-1,2-diamine], 4.90 to 6.00; with `Fc1cccc(-c2cnoc2-c2c[nH]c3ncc(C4CCNCC4)cc23)c1F` [Compound 62, 3-[4-(2,3-Difluoro-phenyl)-isoxazol-5-yl]-5-piperidin-4-yl-1H-pyrrolo[2,3-b]pyridine], 4.90 to 6.00.
